Converted amounts (≈) assume the structure as drawn. Where two headings read alike, the source gives them in different places.
Test system: M. tuberculosis
Experiment: Antibacterial activity against tuberculosis bacteria, resazurin (REMA) MIC50
Assay type: cell-based
Settings: Mycobacterium tuberculosis

## C/C=C(\NC(=O)c1csc(-c2csc(-c3ccc4c(n3)-c3csc(n3)[C@H]([C@@H](C)O)NC(=O)c3csc(n3)[C@H](C(C)C)NC(=O)c3csc(n3)/C(=C/C)NC(=O)[C@H]([C@@H](C)O)NC(=O)c3csc-4n3)n2)n1)C(=O)NCC(C)=O [Micrococcin P2]
Extensively Drug Resistant #3 (XDR-3), read-out: MIC50
  MIC50: 0.375 µM (≈ 0.428 µg/mL)
Extensively Drug Resistant #4 (XDR-4), read-out: MIC50
  MIC50: 0.094 µM (≈ 0.107 µg/mL)
Extensively Drug Resistant #5 (XDR-5), read-out: MIC50
  MIC50: 0.114 µM (≈ 0.13 µg/mL)
Extensively Drug Resistant #6 (XDR-6), read-out: MIC50
  MIC50: 0.722 µM (≈ 0.825 µg/mL)
Extensively Drug Resistant #10 (XDR-7)
  MIC50: 0.209 µM (≈ 0.239 µg/mL)
Multi Drug Resistant isolate #3 (MDR-3), read-out: MIC50
  MIC50: 0.073 µM (≈ 0.0834 µg/mL)
Multi Drug Resistant isolate #4 (MDR-4), read-out: MIC50
  MIC50: 0.169 µM (≈ 0.193 µg/mL)
Multi Drug Resistant isolate #11 (MDR-11), read-out: MIC50
  MIC50: 0.051 µM (≈ 0.0583 µg/mL)
Multi Drug Resistant isolate #20 (MDR-20), read-out: MIC50
  MIC50: 2.3 µM (≈ 2.63 µg/mL)
Multi Drug Resistant isolate #21 (MDR-21), read-out: MIC50
  MIC50: 0.044 µM (≈ 0.0503 µg/mL)
Multi Drug Resistant isolate #30 (MDR-30), read-out: MIC50
  MIC50: 0.304 µM (≈ 0.347 µg/mL)

— US20240277800A1, “PHARMACEUTICAL COMPOSITION COMPRISING MACROCOSINE COMPOUND AND METHOD FOR PREPARING MACROCOSINE COMPOUND” (priority 2021, published 2024)
